Each compound was assayed on recombinant rabies virus 1088 strain expressing Gaussia Luciferase (GLuc) (1088/GLuc). Settings: read-out: Anti-rabies activity.
Type: cell-based

Compared with CC(C)CNC(=O)[C@]12NC[C@H]3C[C@H]1CN(Cc1cccc4ccccc14)[C@H]2[C@@H]3CC(C)C [IB-762], CC(C)CNC(=O)[C@]12NC[C@H]3C[C@H]1CN(Cc1cccc4ccccc14)[C@H]2[C@@H]3Cc1ccc(O)cc1 [IB-763] is higher in IC50: under 5 µM for the first, 10 to 30 µM for the second.

First: CC(C)CCNC(=O)[C@@]12C[C@@H]3CN(Cc4ccc(O)cc4)[C@@H]([C@@H]3CN1)[C@H]2Cc1cccc2ccccc12 [IF-684]
Second: CC(C)CC[C@@H]1[C@@H]2[C@@H]3CN[C@@]1(C(=O)NCc1ccc(O)cc1)C[C@@H]3CN2Cc1ccccc1 [IF-493]
The IC50 of the first is higher: 10 to 30 µM for the first, under 5 µM for the second. The second is the more potent here.

First: Cc1ccc(CN2C[C@@H]3C[C@@H]4CN(C(N)=O)[C@]3(C(=O)NCc3ccccc3)[C@@H]2[C@@H]4CC(C)C)cc1 (relative stereo) [IB-888]
Second: CC(C)C[C@@H]1[C@H]2CN[C@@]3(C(=O)NCc4ccc(O)cc4)[C@@H](C2)CN(Cc2ccccc2)[C@@H]13 [IB-464]
The IC50 of the first is higher: 10 to 30 µM for the first, under 5 µM for the second. The second is the more potent here.

First: O=C(NCCO)[C@]12NC[C@H]3C[C@H]1CN(Cc1ccc(F)cc1)[C@H]2[C@@H]3Cc1ccccc1 [IB-649]
Second: COc1ccc(CN2C[C@@H]3C[C@@H]4CN[C@]3(C(=O)NCc3ccccc3)[C@@H]2[C@@H]4CC(C)C)cc1 [IB-866]
The IC50 of the first is higher: 10 to 30 µM for the first, 5 to 10 µM for the second. The second is the more potent here.

CC(C)CCC1C2CNC3(C(=O)NCc4ccc(O)cc4)C(C2)CN(Cc2ccc(F)cc2)C13 (centres unmarked) [IB-582] and CC(C)CCN1C[C@H]2C[C@]3(C(=O)NCc4ccc(O)cc4)NC[C@H]2[C@H]1[C@H]3CCc1ccccc1 [IF-464] fall in the same range of IC50: 10 to 30 µM for the first, 10 to 30 µM for the second.

Compared with CC(C)CC1C2C3C=NC1(C(=O)NCc1ccccc1)CC3CN2Cc1cccc(Cl)c1 (centres unmarked) [IIF-84], Cc1ccc(CN2CC3CC4(C(=O)NCc5ccccc5)N=CC3C2C4CC(C)C)cc1 (centres unmarked) [IIF-86] is lower in IC50: 5 to 10 µM for the first, under 5 µM for the second.

O=C(O)CCNC(=O)[C@@]12C[C@@H]3CN(CCO)[C@@H]([C@@H]3CN1)[C@H]2Cc1cccc2ccccc12 [IF-444] and CC(C)CC[C@@H]1[C@@H]2[C@@H]3CN[C@@]1(C(=O)NCc1cccc4ccccc14)C[C@@H]3CN2CC(N)=O (relative stereo) [IF-84] fall in the same range of IC50: 10 to 30 µM for the first, 10 to 30 µM for the second.

NC(=O)C[C@@H]1[C@@H]2[C@@H]3CN[C@@]1(C(=O)NCc1cccc4ccccc14)C[C@@H]3CN2CCc1ccccc1 [IF-223] and O=C(NCc1ccc(O)cc1)[C@@]12C[C@@H]3CN(CCc4ccccc4)[C@@H]([C@@H]3CN1)[C@H]2Cc1ccccc1 [IF-469] fall in the same range of IC50: 10 to 30 µM for the first, 10 to 30 µM for the second.

First: CC(C)CCNC(=O)[C@@]12C[C@@H]3CN(CC(C)C)[C@@H]([C@@H]3CN1)[C@H]2Cc1ccccc1 [IF-845]
Second: CC(C)CC[C@@H]1[C@@H]2[C@@H]3CN[C@@]1(C(=O)NCCc1ccccc1)C[C@@H]3CN2CC(C)C [IF-727]
The IC50 of the first is higher: 10 to 30 µM for the first, under 5 µM for the second.

CC(C)CNC(=O)[C@]12N=C[C@@H]3C[C@H]1CN(Cc1ccccc1)[C@H]2[C@@H]3CC(C)C (relative stereo) [IIB-4] and CCN1C[C@@H]2[C@H]3CN(Cc4ccc(C)cc4)[C@@H]2[C@@H](CC(C)C)[C@]1(C(=O)NCc1ccccc1)C3 [IF-855] fall in the same range of IC50: 5 to 10 µM for the first, 5 to 10 µM for the second.

First: O=C(NCc1cccc2ccccc12)[C@]12NC[C@H]3C[C@H]1CN(Cc1cccc4ccccc14)[C@H]2[C@@H]3CCc1ccccc1 [IB-804]
Second: NC(=O)CN1C[C@@H]2C[C@@H]3CN[C@]2(C(=O)NCc2ccccc2)[C@@H]1[C@@H]3CCc1ccccc1 [IB-130]
The IC50 of the first is lower: under 5 µM for the first, 10 to 30 µM for the second.

CC(C)C[C@@H]1[C@@H]2[C@@H]3CN[C@@]1(C(=O)NCc1ccc(Cl)c(Cl)c1)C[C@@H]3CN2Cc1ccccc1 (relative stereo) [IF-20] and NC(=O)CN1C[C@H]2C[C@]3(C(=O)NCc4ccc(F)cc4)NC[C@H]2[C@H]1[C@H]3Cc1cccc2ccccc12 [IF-97] fall in the same range of IC50: 10 to 30 µM for the first, 10 to 30 µM for the second.

NC(=O)CCNC(=O)C12NCC3CC1CN(Cc1ccccc1)C2C3CCc1ccccc1 (centres unmarked) [IB-535] and CCCCCCNC(=O)[C@]12NC[C@H]3C[C@H]1CN(CCO)[C@H]2[C@@H]3Cc1ccc(O)cc1 [IB-478] fall in the same range of IC50: 10 to 30 µM for the first, 10 to 30 µM for the second.

Compound CC(C)C[C@@H]1[C@H]2CN[C@@]3(C(=O)NCCO)[C@@H](C2)CN(CC2CCCCC2)[C@@H]13 [IB-646] has an IC50 of 10 to 30 µM.

Same assay, conditions: read-out: IC50

CC(C)CNC(=O)[C@]12N=C[C@@H]3C[C@H]1CN(Cc1ccccc1)[C@H]2[C@@H]3CC(C)C (relative stereo) [IIB-4] and CC(C)C[C@@H]1[C@@H]2[C@@H]3CN[C@@]1(C(=O)NCc1ccc(Cl)c(Cl)c1)C[C@@H]3CN2Cc1ccccc1 (relative stereo) [IF-20] are within 1.5-fold of each other in IC50: 8.9 µM for the first, 11.6 µM for the second.

Reference: US11780841B2, “3,6-methano-1H-pyrrolo[3,2-b]pyridine and 3,6-methano-1H-pyrrolo[3,2-c]pyridine compounds and medicaments using same” (priority 2018, dated 2023)
